From BindingDB's records for doi:10.1080/14756360701342532 (Chinese Academy of Medical Sciences, 2008)

Target: T1, Seed linoleate 13S-lipoxygenase-1 (Glycine max, UniProt P08170)
T1 sequence (P08170 whole entry): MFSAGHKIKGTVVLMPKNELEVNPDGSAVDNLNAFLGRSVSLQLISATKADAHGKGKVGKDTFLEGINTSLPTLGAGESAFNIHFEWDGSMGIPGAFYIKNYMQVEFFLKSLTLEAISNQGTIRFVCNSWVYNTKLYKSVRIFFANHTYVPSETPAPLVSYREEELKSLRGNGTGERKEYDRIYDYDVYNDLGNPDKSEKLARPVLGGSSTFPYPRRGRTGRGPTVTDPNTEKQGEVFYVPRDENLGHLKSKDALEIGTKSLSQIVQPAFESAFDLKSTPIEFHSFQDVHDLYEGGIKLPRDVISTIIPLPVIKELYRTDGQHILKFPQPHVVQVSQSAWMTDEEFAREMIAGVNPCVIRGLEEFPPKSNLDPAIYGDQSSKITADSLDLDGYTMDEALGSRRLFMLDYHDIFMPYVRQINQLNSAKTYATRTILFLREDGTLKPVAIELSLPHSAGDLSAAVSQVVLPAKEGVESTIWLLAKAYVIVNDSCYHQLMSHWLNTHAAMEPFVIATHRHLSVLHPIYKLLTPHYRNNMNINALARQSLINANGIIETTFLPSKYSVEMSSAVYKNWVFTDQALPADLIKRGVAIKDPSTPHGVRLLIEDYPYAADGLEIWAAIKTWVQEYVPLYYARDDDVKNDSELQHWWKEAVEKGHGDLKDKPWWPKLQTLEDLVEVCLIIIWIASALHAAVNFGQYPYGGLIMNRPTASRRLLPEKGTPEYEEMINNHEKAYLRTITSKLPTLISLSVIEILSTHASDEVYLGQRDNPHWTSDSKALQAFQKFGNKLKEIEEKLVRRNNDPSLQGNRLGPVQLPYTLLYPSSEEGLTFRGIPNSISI
Assay: Inhibition Assay
Details: pH 8; 25 °C
Description: Lipoxygenase inhibiting activity was measured by slightly modifying the spectrometric method. Lipoxygenase type I-B and linoleic acid were purchased from Sigma.

| Compound | IC50 [µM] |
| --- | --- |
| COC(=O)[C@@H]1C2C=C[C@@]3(O)CO[C@@H](O[C@@H]1O)C23 (stereo partly drawn) [Beta-gardiol, 5] | 47.3 |
| COc1ccc(/C=C/C(=O)OC2C(C)OC(O[C@@H]3C=C(CO)C4C3C=CO[C@H]4OC3OC(CO)C(O)C(O)C3O)C(OC(C)=O)C2O)cc1 (some centres not stated) [Buddlejoside A2, 6] | 41.9 |
| COc1ccc(/C=C/C(=O)OC2C(O)C(C)OC(O[C@H]3C4C=CO[C@@H](OC5OC(CO)C(O)C(O)C5O)C4[C@@]4(CO)O[C@@H]34)C2OC(C)=O)cc1 (some centres not stated) [Buddlejoside A5, 7] | 40.4 |
| O=C(OCC1=C[C@@H](O)[C@@H]2C=CO[C@@H](OC3OC(CO)C(O)C(O)C3O)[C@H]12)c1ccc(O)cc1 (some centres not stated) [Buddlejoside A, 1] | 44.3 |
| O=C(OCC1=C[C@@H](O)[C@@H]2C=CO[C@@H](OC3OC(CO)C(O)C(O)C3O)[C@H]12)c1ccc(O)c(O)c1 (some centres not stated) [Buddlejoside B, 2] | 39.7 |
| CC(C)CC(=O)OCC1=C[C@@H](O)[C@@H]2C=CC[C@H](OC3OC(CO)C(O)C(O)C3O)[C@H]12 (some centres not stated) [Buddlejoside C, 3] | 52.5 |
| COC(=O)C1=CO[C@@H](O)C2C(CO)C=CC12 (some centres not stated) [Genipin, 4] | 49.6 |
